Measurements reported in the supplement of paper PMC10307832.

Columns and labels:
Test in all cases: relative viability (nuclei count vs DMSO), 5 days (fraction); higher = more cells survive
[1] = compound: COCC[n+]1c2c(n(Cc3cnccn3)c1C)C(=O)c1ccccc1C2=O [YM155] + Cc1nc(Nc2ncc(C(=O)Nc3c(C)cccc3Cl)s2)cc(N2CCN(CCO)CC2)n1 [Dasatinib] (partner 0.075 µM)
Method in brief: (§1)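 Lung cancer cell lines in 1536-well plates got either a single drug or a fixed anchor-drug dose together with five library-drug doses (not always all listed) in √10 steps, by pin tool, on the day after seeding. Nuclei were counted after 5 days, and relative viability is the treated-to-vehicle ratio of nuclei counts. Values are medians of duplicate plates.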

[2] = compound: CC(C)(C)c1cc(NC(=O)Nc2ccc(-c3cn4c(n3)sc3cc(OCCN5CCOCC5)ccc34)cc2)no1 [Quizartinib] + CC(C)C[C@H](NC(=O)[C@H](Cc1ccccc1)NC(=O)c1cnccn1)B(O)O [Bortezomib] (partner 0.002 µM)
Method in brief: as §1

[3] = compound: CC(C)(C)c1cc(NC(=O)Nc2ccc(-c3cn4c(n3)sc3cc(OCCN5CCOCC5)ccc34)cc2)no1 [Quizartinib] + C[C@]1(O)C[C@@H](c2nc(-c3ccc4ccc(-c5ccccc5)nc4c3)c3c(N)nccn32)C1 [Linsitinib] (partner 1 µM)
Method in brief: as §1

[4] = compound: COCC[n+]1c2c(n(Cc3cnccn3)c1C)C(=O)c1ccccc1C2=O [YM155] + CC(=O)c1c(C)c2cnc(Nc3ccc(N4CCNCC4)cn3)nc2n(C2CCCC2)c1=O [Palbociclib] (partner 0.5 µM)
Method in brief: as §1

Cell Line: A-427
- relative viability ([1]; first compound 0.002 µM): 0.688
- relative viability ([1]; first compound 0.006325 µM): 0.734
- relative viability ([1]; first compound 0.02 µM): 0.839
- relative viability ([1]; first compound 0.06325 µM): 0.818
- relative viability ([2]; first compound 0.001 µM): 0.911
- relative viability ([2]; first compound 0.003162 µM): 0.952
- relative viability ([2]; first compound 0.01 µM): 1.06
- relative viability ([2]; first compound 0.03162 µM): 1
- relative viability ([2]; first compound 0.1 µM): 1.01
- relative viability ([3]; first compound 0.001 µM): 1.04
- relative viability ([3]; first compound 0.003162 µM): 1.08
- relative viability ([3]; first compound 0.01 µM): 1.14
- relative viability ([3]; first compound 0.03162 µM): 1.04
- relative viability ([3]; first compound 0.1 µM): 1.12
- relative viability ([4]; first compound 0.002 µM): 0.532
- relative viability ([4]; first compound 0.006325 µM): 0.502
- relative viability ([4]; first compound 0.02 µM): 0.567
- relative viability ([4]; first compound 0.06325 µM): 0.293

Cell Line: NCI-H2009
- relative viability ([1]; first compound 0.002 µM): 0.265
- relative viability ([1]; first compound 0.006325 µM): 0.264
- relative viability ([1]; first compound 0.02 µM): 0.343
- relative viability ([1]; first compound 0.06325 µM): 0.266
- relative viability ([2]; first compound 0.001 µM): 0.423
- relative viability ([2]; first compound 0.003162 µM): 0.879
- relative viability ([2]; first compound 0.01 µM): 0.948
- relative viability ([2]; first compound 0.03162 µM): 1.02
- relative viability ([2]; first compound 0.1 µM): 0.926
- relative viability ([3]; first compound 0.001 µM): 0.917
- relative viability ([3]; first compound 0.003162 µM): 1.13
- relative viability ([3]; first compound 0.01 µM): 1.24
- relative viability ([3]; first compound 0.03162 µM): 1.01
- relative viability ([3]; first compound 0.1 µM): 1.18
- relative viability ([4]; first compound 0.002 µM): 0.215
- relative viability ([4]; first compound 0.006325 µM): 0.189
- relative viability ([4]; first compound 0.02 µM): 0.318
- relative viability ([4]; first compound 0.06325 µM): 0.166

Cell Line: LCLC-97TM1
- relative viability ([1]; first compound 0.002 µM): 0.761
- relative viability ([1]; first compound 0.006325 µM): 0.954
- relative viability ([1]; first compound 0.02 µM): 0.739
- relative viability ([1]; first compound 0.06325 µM): 0.835
- relative viability ([2]; first compound 0.003162 µM): 0.689
- relative viability ([2]; first compound 0.01 µM): 0.811
- relative viability ([2]; first compound 0.1 µM): 0.527
- relative viability ([3]; first compound 0.003162 µM): 0.148
- relative viability ([3]; first compound 0.01 µM): 0.185
- relative viability ([3]; first compound 0.03162 µM): 0.174
- relative viability ([3]; first compound 0.1 µM): 0.21
- relative viability ([4]; first compound 0.006325 µM): 0.232
- relative viability ([4]; first compound 0.02 µM): 0.241
- relative viability ([4]; first compound 0.06325 µM): 0.19

Cell Line: BEN
- relative viability ([1]; first compound 0.002 µM): 0.331
- relative viability ([1]; first compound 0.006325 µM): 0.269
- relative viability ([1]; first compound 0.02 µM): 0.36
- relative viability ([1]; first compound 0.06325 µM): 0.348
- relative viability ([2]; first compound 0.001 µM): 0.583
- relative viability ([2]; first compound 0.003162 µM): 0.677
- relative viability ([2]; first compound 0.01 µM): 0.703
- relative viability ([2]; first compound 0.03162 µM): 0.766
- relative viability ([2]; first compound 0.1 µM): 0.83
- relative viability ([3]; first compound 0.001 µM): 0.739
- relative viability ([3]; first compound 0.003162 µM): 0.779
- relative viability ([3]; first compound 0.01 µM): 0.903
- relative viability ([3]; first compound 0.03162 µM): 0.815
- relative viability ([3]; first compound 0.1 µM): 0.712
- relative viability ([4]; first compound 0.002 µM): 0.482
- relative viability ([4]; first compound 0.006325 µM): 0.412
- relative viability ([4]; first compound 0.02 µM): 0.477
- relative viability ([4]; first compound 0.06325 µM): 0.545

Cell Line: EMC-BAC-2
- relative viability ([1]; first compound 0.002 µM): 0.327
- relative viability ([1]; first compound 0.006325 µM): 0.355
- relative viability ([1]; first compound 0.02 µM): 0.325
- relative viability ([1]; first compound 0.06325 µM): 0.338
- relative viability ([2]; first compound 0.001 µM): 0.986
- relative viability ([2]; first compound 0.003162 µM): 1.14
- relative viability ([2]; first compound 0.01 µM): 0.985
- relative viability ([2]; first compound 0.03162 µM): 0.857
- relative viability ([2]; first compound 0.1 µM): 1.05
- relative viability ([3]; first compound 0.001 µM): 0.712
- relative viability ([3]; first compound 0.003162 µM): 0.748
- relative viability ([3]; first compound 0.01 µM): 0.815
- relative viability ([3]; first compound 0.03162 µM): 0.789
- relative viability ([3]; first compound 0.1 µM): 0.838
- relative viability ([4]; first compound 0.002 µM): 0.49
- relative viability ([4]; first compound 0.006325 µM): 0.514
- relative viability ([4]; first compound 0.02 µM): 0.536
- relative viability ([4]; first compound 0.06325 µM): 0.384

Cell Line: NCI-H520
- relative viability ([1]; first compound 0.002 µM): 0.197
- relative viability ([1]; first compound 0.006325 µM): 0.174
- relative viability ([1]; first compound 0.02 µM): 0.217
- relative viability ([1]; first compound 0.06325 µM): 0.185
- relative viability ([2]; first compound 0.001 µM): 0.448
- relative viability ([2]; first compound 0.003162 µM): 0.549
- relative viability ([2]; first compound 0.01 µM): 0.736
- relative viability ([2]; first compound 0.03162 µM): 0.532
- relative viability ([2]; first compound 0.1 µM): 0.462
- relative viability ([3]; first compound 0.001 µM): 0.862
- relative viability ([3]; first compound 0.003162 µM): 0.992
- relative viability ([3]; first compound 0.01 µM): 0.888
- relative viability ([3]; first compound 0.03162 µM): 0.934
- relative viability ([3]; first compound 0.1 µM): 0.859
- relative viability ([4]; first compound 0.002 µM): 0.175
- relative viability ([4]; first compound 0.006325 µM): 0.205
- relative viability ([4]; first compound 0.02 µM): 0.238
- relative viability ([4]; first compound 0.06325 µM): 0.304

Cell Line: NCI-H1355
- relative viability ([1]; first compound 0.002 µM): 0.731
- relative viability ([1]; first compound 0.006325 µM): 0.748
- relative viability ([1]; first compound 0.02 µM): 0.781
- relative viability ([1]; first compound 0.06325 µM): 0.801
- relative viability ([2]; first compound 0.001 µM): 1.07
- relative viability ([2]; first compound 0.003162 µM): 1.28
- relative viability ([2]; first compound 0.01 µM): 1.09
- relative viability ([2]; first compound 0.03162 µM): 1.25
- relative viability ([2]; first compound 0.1 µM): 1.28
- relative viability ([3]; first compound 0.001 µM): 0.804
- relative viability ([3]; first compound 0.003162 µM): 0.817
- relative viability ([3]; first compound 0.01 µM): 0.827
- relative viability ([3]; first compound 0.03162 µM): 0.799
- relative viability ([3]; first compound 0.1 µM): 0.842
- relative viability ([4]; first compound 0.002 µM): 0.4
- relative viability ([4]; first compound 0.006325 µM): 0.39
- relative viability ([4]; first compound 0.02 µM): 0.4
- relative viability ([4]; first compound 0.06325 µM): 0.394

Cell Line: HCC-366
- relative viability ([1]; first compound 0.002 µM): 0.578
- relative viability ([1]; first compound 0.006325 µM): 0.653
- relative viability ([1]; first compound 0.02 µM): 0.685
- relative viability ([1]; first compound 0.06325 µM): 0.581
- relative viability ([2]; first compound 0.001 µM): 0.989
- relative viability ([2]; first compound 0.003162 µM): 0.974
- relative viability ([2]; first compound 0.01 µM): 1.13
- relative viability ([2]; first compound 0.03162 µM): 0.967
- relative viability ([2]; first compound 0.1 µM): 1.01
- relative viability ([3]; first compound 0.001 µM): 0.501
- relative viability ([3]; first compound 0.003162 µM): 0.695
- relative viability ([3]; first compound 0.01 µM): 0.656
- relative viability ([3]; first compound 0.03162 µM): 0.615
- relative viability ([3]; first compound 0.1 µM): 0.554
- relative viability ([4]; first compound 0.002 µM): 0.37
- relative viability ([4]; first compound 0.006325 µM): 0.412
- relative viability ([4]; first compound 0.02 µM): 0.439
- relative viability ([4]; first compound 0.06325 µM): 0.27

Cell Line: NCI-H1915
- relative viability ([1]; first compound 0.002 µM): 0.311
- relative viability ([1]; first compound 0.006325 µM): 0.284
- relative viability ([1]; first compound 0.02 µM): 0.309
- relative viability ([1]; first compound 0.06325 µM): 0.301
- relative viability ([2]; first compound 0.001 µM): 0.924
- relative viability ([2]; first compound 0.003162 µM): 0.836
- relative viability ([2]; first compound 0.01 µM): 0.916
- relative viability ([2]; first compound 0.03162 µM): 1.06
- relative viability ([2]; first compound 0.1 µM): 1.01
- relative viability ([3]; first compound 0.001 µM): 0.761
- relative viability ([3]; first compound 0.003162 µM): 1.03
- relative viability ([3]; first compound 0.01 µM): 1.11
- relative viability ([3]; first compound 0.03162 µM): 1.08
- relative viability ([3]; first compound 0.1 µM): 1.15
- relative viability ([4]; first compound 0.002 µM): 0.494
- relative viability ([4]; first compound 0.006325 µM): 0.533
- relative viability ([4]; first compound 0.02 µM): 0.539
- relative viability ([4]; first compound 0.06325 µM): 0.552
